Patent publication US4181716A, “Antibiotics” (Beecham Group Limited, priority 1974, dated 1980)
Structures can show the parent of a compound that is named as a salt.

Tests used:
Klebsiella aerogenes [1] = experiment: assay of activity in units against culture filtrate; assay type: cell-based
Procedure: The MM 4550 (Complex) was eluted from the resin with 5% NaCl in 50% aqueous methanol. […] The MM 4550 (Complex) content of culture filtrate was arbitrarily set at 8 units/ml. The eluted fractions from the column were assayed using an antibacterial diffusion method against Klebsiella aerogenes and the activity units were calculated by reference to a standard line prepared by plotting zone diameter against units/ml. for various dilutions of culture filtrate (i.e. the culture filtrate was used as a standard).
The material produced above was arbitrarily assigned an activity of 340 l/ml. Assays were determined as described in Description 3.

Strep. faecalis = experiment: MIC, microtitre method (Table 10); assay type: cell-based; details: heavy inoculum, 1/100 overnight broth
Procedure: (§1) Partially purified MM 4550Adi-sodium salt (0.55 g) was chromatographed on a cellulose column (4.5 cm×29 cm; Whatman CC31 cellulose) eluted with n-propanol/water (4:1 v/v) at a flow rate of 2.5 ml./min. The first 135 ml of eluate was discarded and then 15 ml fractions collected.
(§2) ANTIBACTERIAL ACTIVITY OF THE DI-SODIUM
(§3) SALT OF MM 4550A ([…]-HEAVY
(§4) INOCULUM, 1/100 OVERNIGHT BROTH

Kleb. aerogenes A = experiment: MIC, microtitre method (Table 10); assay type: cell-based; details: heavy inoculum, 1/100 overnight broth
Procedure: as §1, §2, §3, §4

Staph. aureus Oxford = experiment: MIC, microtitre method (Table 10); assay type: cell-based; details: heavy inoculum, 1/100 overnight broth
Procedure: as §1, §2, §3, §4

Shigella sonnei = experiment: MIC, microtitre method (Table 10); assay type: cell-based; details: heavy inoculum, 1/100 overnight broth
Procedure: as §1, §2, §3, §4

[2] = test system: Salmonella typhimurium CT 10; experiment: MIC, microtitre method (Table 10); assay type: cell-based; details: heavy inoculum, 1/100 overnight broth
Procedure: as §1, §2, §3, §4

Enterobacter cloacae N1 = experiment: MIC, microtitre method (Table 10); assay type: cell-based; details: heavy inoculum, 1/100 overnight broth
Procedure: as §1, §2, §3, §4

Ps. aeruginosa A = experiment: MIC, microtitre method (Table 10); assay type: cell-based; details: heavy inoculum, 1/100 overnight broth
Procedure: as §1, §2, §3, §4

[3] = test system: Serratia marcescens US 39; experiment: MIC, microtitre method (Table 10); assay type: cell-based; details: heavy inoculum, 1/100 overnight broth
Procedure: as §1, §2, §3, §4

Proteus vulgaris WO 90 = experiment: MIC, microtitre method (Table 10); assay type: cell-based; details: heavy inoculum, 1/100 overnight broth
Procedure: as §1, §2, §3, §4

Prov. stuartii = experiment: MIC, microtitre method (Table 10); assay type: cell-based; details: heavy inoculum, 1/100 overnight broth
Procedure: as §1, §2, §3, §4

Proteus mirabilis 13 = experiment: MIC, microtitre method (Table 10); assay type: cell-based; details: heavy inoculum, 1/100 overnight broth
Procedure: as §1, §2, §3, §4

Staph. aureus Russell = experiment: MIC, microtitre method (Table 10); assay type: cell-based; details: heavy inoculum, 1/100 overnight broth
Procedure: as §1, §2, §3, §4

Bacillus subtilis A = experiment: MIC, microtitre method (Table 10); assay type: cell-based; details: heavy inoculum, 1/100 overnight broth
Procedure: as §1, §2, §3, §4

dopa decarboxylase = experiment: enzyme inhibition (not a general enzyme poison); assay type: biochemical; details: at concentrations in excess of those required to inhibit the β-lactamase of E. coli
[4] = test system: Escherichia coli, Klebsiella aerogenes, Proteus mirabilis, Proteus morganii and Staphylococcus aureus Russell; experiment: synergism with ampicillin (property list); assay type: cell-based, bacteria; details: sodium salt
carbonic anhydrase = experiment: enzyme inhibition (not a general enzyme poison); assay type: biochemical; details: at concentrations in excess of those required to inhibit the β-lactamase of E. coli
stability = assay type: physicochemical
trypsin = experiment: enzyme inhibition (not a general enzyme poison); assay type: biochemical; details: at concentrations in excess of those required to inhibit the β-lactamase of E. coli
chymotrypsin = experiment: enzyme inhibition (not a general enzyme poison); assay type: biochemical; details: at concentrations in excess of those required to inhibit the β-lactamase of E. coli
Proteus morganii = experiment: antibacterial activity by bioautography (Table 4); assay type: cell-based; details: TLC with cellulose, butanol/isopropyl alcohol/water 7:7:6 v/v
Source text: (§5) Analysis of the preparation by thin layer chromatography on cellulose (Eastman Kodak "Chromagram" sheets) developed with n-butanol; isopropanol:water (7:7:6) separated two active substances, one with an approximate Rf of 0.54 which was designated MM 4550 A and one with an approximate Rf of 0.72 which was designated MM 13902.
(§6) 13902 AS DETERMINED BY BIOAUTOGRAPHY (TLC
(§7) WITH CELLULOSE AND BUTONAL/ISOPROPYL
(§8) ALCOHOL/WATER 7:7:6 v/v)

Salmonella typhi = experiment: antibacterial activity by bioautography (Table 4); assay type: cell-based; details: TLC with cellulose, butanol/isopropyl alcohol/water 7:7:6 v/v
Source text: as §5, §6, §7, §8

Enterobacter aerogenes = experiment: antibacterial activity by bioautography (Table 4); assay type: cell-based; details: TLC with cellulose, butanol/isopropyl alcohol/water 7:7:6 v/v
Source text: as §5, §6, §7, §8

Klebsiella aerogenes [5] = experiment: antibacterial activity by bioautography (Table 4); assay type: cell-based; details: TLC with cellulose, butanol/isopropyl alcohol/water 7:7:6 v/v
Source text: as §5, §6, §7, §8

Bacillus subtilis = experiment: antibacterial activity by bioautography (Table 4); assay type: cell-based; details: TLC with cellulose, butanol/isopropyl alcohol/water 7:7:6 v/v
Source text: as §5, §6, §7, §8

Escherichia coli 10418 = experiment: antibacterial activity by bioautography (Table 4); assay type: cell-based; details: TLC with cellulose, butanol/isopropyl alcohol/water 7:7:6 v/v
Source text: as §5, §6, §7, §8

[6] = test system: Staphylococcus aureus (Oxford); experiment: antibacterial activity by bioautography (Table 4); assay type: cell-based; details: TLC with cellulose, butanol/isopropyl alcohol/water 7:7:6 v/v
Source text: as §5, §6, §7, §8

[7] = test system: Staphylococcus aureus (Russell); experiment: antibacterial activity by bioautography (Table 4); assay type: cell-based; details: TLC with cellulose, butanol/isopropyl alcohol/water 7:7:6 v/v
Source text: as §5, §6, §7, §8

urease = experiment: enzyme inhibition (not a general enzyme poison); assay type: biochemical; details: at concentrations in excess of those required to inhibit the β-lactamase of E. coli
[8] = test system: Staphylococcus aureus, Bacillus subtilis, Escherichia coli, Klebsiella aerogenes, Proteus mirabilis, Acinetobacter anitratus, Serratia marcescens and Shigella …; experiment: antibacterial activity (property list); assay type: cell-based, bacteria; details: substantially pure sodium salt
solubility = assay type: physicochemical; details: sodium salt
monoamine oxidase = experiment: enzyme inhibition (not a general enzyme poison); assay type: biochemical; details: at concentrations in excess of those required to inhibit the β-lactamase of E. coli
[9] = test system: Staphylococcus aureus, Bacillus subtilis, Escherichia coli, Klebsiella aerogenes, Proteus mirabilis, Salmonella typhi and Pseudomonas aeruginosa; experiment: antibacterial activity (property list); assay type: cell-based, bacteria; details: sodium salt
Proteus mirabilis = experiment: antibacterial activity by bioautography (Table 4); assay type: cell-based; details: TLC with cellulose, butanol/isopropyl alcohol/water 7:7:6 v/v
Source text: as §5, §6, §7, §8

Escherichia coli 311 = experiment: antibacterial activity by bioautography (Table 4); assay type: cell-based; details: TLC with cellulose, butanol/isopropyl alcohol/water 7:7:6 v/v
Source text: as §5, §6, §7, §8

## CC(=O)N/C=C/[S+]([O-])C1=C(C(=O)O)N2C(=O)C(C(C)OS(=O)(=O)O)C2C1 (stereo not drawn) [di-sodium salt of MM 4550A]
Klebsiella aerogenes [1]; Example 3, yellowish powder (87 mg) after cellulose column
  activity: 6,600 units/mg
Strep. faecalis
  MIC: 100 µg/mL
Kleb. aerogenes A
  MIC: 2.5 µg/mL
Staph. aureus Oxford
  MIC: 20 µg/mL
Shigella sonnei
  MIC: 5 µg/mL
[2]
  MIC: 5 µg/mL
Enterobacter cloacae N1
  MIC: 100 µg/mL
Ps. aeruginosa A
  MIC: > 100 µg/mL
[3]
  MIC: 20 µg/mL
Proteus vulgaris WO 90
  MIC: 5 µg/mL
Prov. stuartii
  MIC: 5 µg/mL
Proteus mirabilis 13
  MIC: 10 µg/mL
Staph. aureus Russell
  MIC: 20 µg/mL
Bacillus subtilis A
  MIC: 25 µg/mL

## CC(=O)N/C=C/[S+]([O-])C1=C(C(=O)O)N2C(=O)C(C(C)OS(=O)(=O)O)C2C1 (stereo not drawn) [MM 4550A]
Dopa decarboxylase
  inhibition of dopa decarboxylase: does not inhibit
[4]
  synergism when mixed with ampicillin: synergizes its activity
Carbonic anhydrase
  inhibition of carbonic anhydrase: does not inhibit
stability; monobasic salts and free acid
  stability for isolation from mixtures: not sufficiently stable to isolate from mixtures
stability; unsalted acid form
  stability: tends to be unstable
trypsin
  inhibition of trypsin: does not inhibit
chymotrypsin
  inhibition of chymotrypsin: does not inhibit
Proteus morganii
  Zone Diameter on Bioautography: 16.0 mm
Salmonella typhi
  Zone Diameter on Bioautography: 19.5 mm
Enterobacter aerogenes
  Zone Diameter on Bioautography: 6.5 mm
Klebsiella aerogenes [5]
  Zone Diameter on Bioautography: 20.0 mm
Bacillus subtilis
  Zone Diameter on Bioautography: 24.0 mm
Escherichia coli 10418
  Zone Diameter on Bioautography: 20.0 mm
[6]
  Zone Diameter on Bioautography: 13.0 mm
[7]
  Zone Diameter on Bioautography: 12.0 mm
Klebsiella aerogenes [1]; Example 3, partially purified salt (2.18 g brown solid)
  activity: 3,100 units/mg
urease
  inhibition of urease: does not inhibit
[8]
  antibacterial activity: possesses antibacterial activity
solubility
  solubility in chloroform, diethylether and hydrocarbons: substantially insoluble
  solubility in methanol: soluble
  solubility in water: highly soluble
Monoamine oxidase
  inhibition of monoamine oxidase: does not inhibit

## CC(=O)N/C=C/SC1=C(C(=O)O)N2C(=O)C(C(C)OS(=O)(=O)O)C2C1 (stereo not drawn) [MM 13902]
[9]
  antibacterial activity: possesses antibacterial activity
[4]
  synergism when mixed with ampicillin: synergyses its activity
Proteus morganii
  Zone Diameter on Bioautography: 9.5 mm
Salmonella typhi
  Zone Diameter on Bioautography: 21.0 mm
Proteus mirabilis
  Zone Diameter on Bioautography: 13.5 mm
Enterobacter aerogenes
  Zone Diameter on Bioautography: No Zone
Klebsiella aerogenes [5]
  Zone Diameter on Bioautography: 20.0 mm
Bacillus subtilis
  Zone Diameter on Bioautography: 15.0 mm
Escherichia coli 311
  Zone Diameter on Bioautography: 10.5 mm
Escherichia coli 10418
  Zone Diameter on Bioautography: 13.5 mm
[6]
  Zone Diameter on Bioautography: 4.0 mm
[7]
  Zone Diameter on Bioautography: 4.0 mm
